Assay: Solubility of precursor compounds in methanol
Format: physicochemical
Protocol: Ca(dbm)2.4H2O (1 g) was weighed into a 250 mL conical flask. Methanol (50 mL) was added, the flask was stoppered and the solution was swirled for […]2 min. The solution was incubated in a water bath at varying temperatures (20°, 30° or 40° C.) for a period of 4 or 17 h. At the end of the incubation period, two 20 mL aliquots of the solution were filtered into separate, pre-weighed round bottomed flasks. […] Experiments for all conditions were carried out in duplicate. The results of the solubility experiments are compiled in Table 2.

O.O.O.O.O=C(C=C([O-])c1ccccc1)c1ccccc1.O=C(C=C([O-])c1ccccc1)c1ccccc1.[Ca+2] [Ca(dbm)2•4H2O, Ca(dbm)2.4H2O]
solubility in methanol (incubation 20° C., 4 h): 1.78 ± 0.1 g/100 mL
solubility in methanol (incubation 20° C., 17 h): 1.91 ± 0.5 g/100 mL
solubility in methanol (incubation 30° C., 4 h): 1.86 ± 0.1 g/100 mL
solubility in methanol (incubation 30° C., 17 h): 1.88 ± 0.5 g/100 mL
solubility in methanol (incubation 40° C., 4 h): 1.98 ± 0.2 g/100 mL
solubility in methanol (incubation 40° C., 17 h): 1.92 ± 0.4 g/100 mL
solubility in methanol relative to the acac and benzoylacetone calcium complexes (qualitative comparison): higher solubility
